Reference: patent US9738634B2, “Heterocyclic amide compound and herbicide” (SYNGENTA PARTICIPATIONS AG, priority 2013, dated 2017)

What was measured:
Assay type in all cases: in vivo
[1] = system: barnyard grass; assay: Test Example 1: weedkilling efficacy, preemergent weed treatment in the submerged state; A: barnyard grass
Source text: (§1) Weedkilling efficacy test on preemergent weed treatment in the submerged state
(§2) Alluvial soil was introduced into 1/10,000 Are Wagner pots, and 4 cm depth submerged conditions were created by addition of water and mixing. Seeds of barnyard grass, bulrush and oval-leafed pondweed were mixed and sown into the aforesaid cups, then 2.5 leaf stage rice seedlings were transplanted. On the sowing day, emulsions of compounds of the present invention prepared according to compounding example 2 were diluted with water to give the specified dosages and applied onto the water surface. The plants were grown after placing the cups in a greenhouse at 25 to 30° C. 3 weeks after the pesticide treatment the effect on each type of plant was investigated on the basis of the following assessment criteria.
(§3) A: barnyard grass, B: bulrush, C: oval-leafed pondweed, D: crabgrass, E: green foxtail, F: barnyard grass, G: wild oat, H: black-grass, I: Italian ryegrass, J: common wind-grass, K: Indian mallow, L: redroot pigweed, M: fig-leafed goosefoot, N: chickweed, O: catchweed, p: birds-eye speedwell, a: transplanted rice, b: directly sown rice, c: corn, d: soybean, e: wheat, f: beet, g: rapeseed
(§4) Further, pesticide dosage (g/ha) indicates the concentration regulated such that treatment was with only the stated number of grams (g), when calculated per hectare (ha).

[2] = system: bulrush; assay: Test Example 1: weedkilling efficacy, preemergent weed treatment in the submerged state; B: bulrush
Source text: as §1, §2, §3, §4

[3] = system: oval-leafed pondweed; assay: Test Example 1: weedkilling efficacy, preemergent weed treatment in the submerged state; C: oval-leafed pondweed
Source text: as §1, §2, §3, §4

[4] = system: transplanted rice; assay: Test Example 1: preemergent weed treatment in the submerged state, effect on crop; a: transplanted rice
Source text: as §1, §2, §3, §4

[5] = system: barnyard grass; assay: Test Example 2: weedkilling efficacy, growth period weed treatment in the submerged state; A: barnyard grass
Procedure: (§5) Weedkilling efficacy test on growth period weed treatment in the submerged state
as §2, with “and the plants were grown by placing in a greenhouse at 25 to 30° C. When the barnyard grass, bulrush and oval-leafed pondweed had reached the 1-2” for “then 2.5”, “stage,” for “stage rice seedlings were transplanted. On the sowing day,”, “surface.” for “surface. The plants were grown after placing the cups in a greenhouse at 25 to 30° C.”, “the” for “the following”, “criteria of test example 1.” for “criteria.”
as §3, §4

[6] = system: bulrush; assay: Test Example 2: weedkilling efficacy, growth period weed treatment in the submerged state; B: bulrush
Procedure: as §5
as §2, with “and the plants were grown by placing in a greenhouse at 25 to 30° C. When the barnyard grass, bulrush and oval-leafed pondweed had reached the 1-2” for “then 2.5”, “stage,” for “stage rice seedlings were transplanted. On the sowing day,”, “surface.” for “surface. The plants were grown after placing the cups in a greenhouse at 25 to 30° C.”, “the” for “the following”, “criteria of test example 1.” for “criteria.”
as §3, §4

[7] = system: oval-leafed pondweed; assay: Test Example 2: weedkilling efficacy, growth period weed treatment in the submerged state; C: oval-leafed pondweed
Procedure: as §5
as §2, with “and the plants were grown by placing in a greenhouse at 25 to 30° C. When the barnyard grass, bulrush and oval-leafed pondweed had reached the 1-2” for “then 2.5”, “stage,” for “stage rice seedlings were transplanted. On the sowing day,”, “surface.” for “surface. The plants were grown after placing the cups in a greenhouse at 25 to 30° C.”, “the” for “the following”, “criteria of test example 1.” for “criteria.”
as §3, §4

Row | Compound | A: barnyard grass, weed kill grade ([1]; treatment dosage 252 g/ha) | B: bulrush, weed kill grade ([2]; treatment dosage 252 g/ha) | C: oval-leafed pondweed, weed kill grade ([3]; treatment dosage 252 g/ha) | a: transplanted rice, effect on crop grade ([4]; treatment dosage 252 g/ha) | A (barnyard grass) weedkilling efficacy grade ([5]; treatment dosage 252 g/ha) | B (bulrush) weedkilling efficacy grade ([6]; treatment dosage 252 g/ha) | C (oval-leafed pondweed) weedkilling efficacy grade ([7]; treatment dosage 252 g/ha) | other results
1 | CC(C)(C(=O)Nc1cc(Cl)cc(Cl)n1)N1COCN(c2ccccc2)C1=S [A-2-18] |  |  |  |  |  |  |  | A: barnyard grass, weed kill grade ([1]; treatment dosage 320 g/ha): 5 (weed kill ratio 90% or more, (practically complete withering)); B: bulrush, weed kill grade ([2]; treatment dosage 320 g/ha): 5 (weed kill ratio 90% or more, (practically complete withering)); C: oval-leafed pondweed, weed kill grade ([3]; treatment dosage 320 g/ha): 5 (weed kill ratio 90% or more, (practically complete withering)); a: transplanted rice, effect on crop grade ([4]; treatment dosage 320 g/ha): 0 (weed kill ratio 5% or less (practically no effect)); A (barnyard grass) weedkilling efficacy grade ([5]; treatment dosage 320 g/ha): 5 (weed kill ratio 90% or more, (practically complete withering)); B (bulrush) weedkilling efficacy grade ([6]; treatment dosage 320 g/ha): 5 (weed kill ratio 90% or more, (practically complete withering)); C (oval-leafed pondweed) weedkilling efficacy grade ([7]; treatment dosage 320 g/ha): 5 (weed kill ratio 90% or more, (practically complete withering))
2 | CC(C)(C(=O)Nc1cccc(C(F)F)n1)N1COCN(c2ccccc2)C1=O [A-2-41] |  |  |  |  |  |  |  | A: barnyard grass, weed kill grade ([1]; treatment dosage 315 g/ha): 5 (weed kill ratio 90% or more, (practically complete withering)); B: bulrush, weed kill grade ([2]; treatment dosage 315 g/ha): 5 (weed kill ratio 90% or more, (practically complete withering)); C: oval-leafed pondweed, weed kill grade ([3]; treatment dosage 315 g/ha): 5 (weed kill ratio 90% or more, (practically complete withering)); a: transplanted rice, effect on crop grade ([4]; treatment dosage 315 g/ha): 0 (weed kill ratio 5% or less (practically no effect)); A (barnyard grass) weedkilling efficacy grade ([5]; treatment dosage 315 g/ha): 5 (weed kill ratio 90% or more, (practically complete withering)); B (bulrush) weedkilling efficacy grade ([6]; treatment dosage 315 g/ha): 5 (weed kill ratio 90% or more, (practically complete withering)); C (oval-leafed pondweed) weedkilling efficacy grade ([7]; treatment dosage 315 g/ha): 5 (weed kill ratio 90% or more, (practically complete withering))
3 | CC(C)(C(=O)Nc1cc(C(F)(F)F)ccn1)N1COCN(c2ccccc2)C1=O [A-2-42] | 5 (weed kill ratio 90% or more, (practically complete withering)) | 5 (weed kill ratio 90% or more, (practically complete withering)) | 5 (weed kill ratio 90% or more, (practically complete withering)) | 4 (weed kill ratio 70% or more, less than 90%) | 5 (weed kill ratio 90% or more, (practically complete withering)) | 5 (weed kill ratio 90% or more, (practically complete withering)) | 5 (weed kill ratio 90% or more, (practically complete withering)) | 
4 | CC(C)(C(=O)Nc1ccc(C(F)(F)F)cn1)N1COCN(c2ccccc2)C1=O [A-2-43] |  |  |  |  |  |  |  | A: barnyard grass, weed kill grade ([1]; treatment dosage 320 g/ha): 3 (weed kill ratio 40% or more, less than 70%); B: bulrush, weed kill grade ([2]; treatment dosage 320 g/ha): 5 (weed kill ratio 90% or more, (practically complete withering)); C: oval-leafed pondweed, weed kill grade ([3]; treatment dosage 320 g/ha): 5 (weed kill ratio 90% or more, (practically complete withering)); a: transplanted rice, effect on crop grade ([4]; treatment dosage 320 g/ha): 0 (weed kill ratio 5% or less (practically no effect)); A (barnyard grass) weedkilling efficacy grade ([5]; treatment dosage 320 g/ha): 2 (weed kill ratio 20% or more, less than 40%); B (bulrush) weedkilling efficacy grade ([6]; treatment dosage 320 g/ha): 4 (weed kill ratio 70% or more, less than 90%); C (oval-leafed pondweed) weedkilling efficacy grade ([7]; treatment dosage 320 g/ha): 2 (weed kill ratio 20% or more, less than 40%)
5 | CC(C)(C(=O)Nc1cccc(C(F)(F)F)n1)N1COCN(c2ccccc2)C1=O [A-2-44] | 5 (weed kill ratio 90% or more, (practically complete withering)) | 5 (weed kill ratio 90% or more, (practically complete withering)) | 4 (weed kill ratio 70% or more, less than 90%) | 0 (weed kill ratio 5% or less (practically no effect)) | 3 (weed kill ratio 40% or more, less than 70%) | 5 (weed kill ratio 90% or more, (practically complete withering)) | 1 (weed kill ratio 5% or more, less than 20%) | 
6 | CC(C)(C(=O)Nc1cc(C2CC2)ccn1)N1COCN(c2ccccc2)C1=O [A-2-45] | 5 (weed kill ratio 90% or more, (practically complete withering)) | 5 (weed kill ratio 90% or more, (practically complete withering)) | 5 (weed kill ratio 90% or more, (practically complete withering)) | 0 (weed kill ratio 5% or less (practically no effect)) | 4 (weed kill ratio 70% or more, less than 90%) | 4 (weed kill ratio 70% or more, less than 90%) | 3 (weed kill ratio 40% or more, less than 70%) | 
7 | CC(C)(C(=O)Nc1cccc(C2CC2)n1)N1COCN(c2ccccc2)C1=O [A-2-46] | 5 (weed kill ratio 90% or more, (practically complete withering)) | 4 (weed kill ratio 70% or more, less than 90%) | 3 (weed kill ratio 40% or more, less than 70%) | 1 (weed kill ratio 5% or more, less than 20%) | 4 (weed kill ratio 70% or more, less than 90%) | 2 (weed kill ratio 20% or more, less than 40%) | 0 (weed kill ratio 5% or less (practically no effect)) | 
8 | CC(C)(C(=O)Nc1cc(C#N)ccn1)N1COCN(c2ccccc2)C1=O [A-2-48] | 5 (weed kill ratio 90% or more, (practically complete withering)) | 5 (weed kill ratio 90% or more, (practically complete withering)) | 5 (weed kill ratio 90% or more, (practically complete withering)) | 0 (weed kill ratio 5% or less (practically no effect)) | 4 (weed kill ratio 70% or more, less than 90%) | 5 (weed kill ratio 90% or more, (practically complete withering)) | 5 (weed kill ratio 90% or more, (practically complete withering)) | 
9 | CC(C)(C(=O)Nc1cc(-c2ccccc2)ccn1)N1COCN(c2ccccc2)C1=O [A-2-49] | 5 (weed kill ratio 90% or more, (practically complete withering)) | 5 (weed kill ratio 90% or more, (practically complete withering)) | 5 (weed kill ratio 90% or more, (practically complete withering)) | 1 (weed kill ratio 5% or more, less than 20%) | 4 (weed kill ratio 70% or more, less than 90%) | 4 (weed kill ratio 70% or more, less than 90%) | 4 (weed kill ratio 70% or more, less than 90%) | 
10 | CC(C)(C(=O)Nc1cccc(-c2ccccc2)n1)N1COCN(c2ccccc2)C1=O [A-2-50] | 5 (weed kill ratio 90% or more, (practically complete withering)) | 5 (weed kill ratio 90% or more, (practically complete withering)) | 5 (weed kill ratio 90% or more, (practically complete withering)) | 0 (weed kill ratio 5% or less (practically no effect)) | 4 (weed kill ratio 70% or more, less than 90%) | 4 (weed kill ratio 70% or more, less than 90%) | 3 (weed kill ratio 40% or more, less than 70%) | 
11 | COc1cccc(NC(=O)C(C)(C)N2COCN(c3ccccc3)C2=O)n1 [A-2-52] | 5 (weed kill ratio 90% or more, (practically complete withering)) | 5 (weed kill ratio 90% or more, (practically complete withering)) | 5 (weed kill ratio 90% or more, (practically complete withering)) | 1 (weed kill ratio 5% or more, less than 20%) | 4 (weed kill ratio 70% or more, less than 90%) | 5 (weed kill ratio 90% or more, (practically complete withering)) | 2 (weed kill ratio 20% or more, less than 40%) | 
12 | CC(C)(C(=O)Nc1cc(OC(F)F)ccn1)N1COCN(c2ccccc2)C1=O [A-2-53] |  |  |  |  |  |  |  | A: barnyard grass, weed kill grade ([1]; treatment dosage 320 g/ha): 5 (weed kill ratio 90% or more, (practically complete withering)); B: bulrush, weed kill grade ([2]; treatment dosage 320 g/ha): 5 (weed kill ratio 90% or more, (practically complete withering)); C: oval-leafed pondweed, weed kill grade ([3]; treatment dosage 320 g/ha): 5 (weed kill ratio 90% or more, (practically complete withering)); a: transplanted rice, effect on crop grade ([4]; treatment dosage 320 g/ha): 1 (weed kill ratio 5% or more, less than 20%); A (barnyard grass) weedkilling efficacy grade ([5]; treatment dosage 320 g/ha): 5 (weed kill ratio 90% or more, (practically complete withering)); B (bulrush) weedkilling efficacy grade ([6]; treatment dosage 320 g/ha): 5 (weed kill ratio 90% or more, (practically complete withering)); C (oval-leafed pondweed) weedkilling efficacy grade ([7]; treatment dosage 320 g/ha): 5 (weed kill ratio 90% or more, (practically complete withering))
